According to patent publication US12479847B2 (DANA-FARBER CANCER INSTITUTE, INC., priority 2019, dated 2025):

How the values were obtained:
Experiment in all cases: KINOMEscan (ScanMAX) kinase profiling
Assay type in all cases: binding
panel of 468 kinases [1] = molecular target: T1, panel of 468 kinases (Homo sapiens, UniProt O14936); conditions: CASK; 1 μM; read-out: % control
T1 construct: purchased KINOMEscan (ScanMAX) service
T1 sequence (O14936 1-926): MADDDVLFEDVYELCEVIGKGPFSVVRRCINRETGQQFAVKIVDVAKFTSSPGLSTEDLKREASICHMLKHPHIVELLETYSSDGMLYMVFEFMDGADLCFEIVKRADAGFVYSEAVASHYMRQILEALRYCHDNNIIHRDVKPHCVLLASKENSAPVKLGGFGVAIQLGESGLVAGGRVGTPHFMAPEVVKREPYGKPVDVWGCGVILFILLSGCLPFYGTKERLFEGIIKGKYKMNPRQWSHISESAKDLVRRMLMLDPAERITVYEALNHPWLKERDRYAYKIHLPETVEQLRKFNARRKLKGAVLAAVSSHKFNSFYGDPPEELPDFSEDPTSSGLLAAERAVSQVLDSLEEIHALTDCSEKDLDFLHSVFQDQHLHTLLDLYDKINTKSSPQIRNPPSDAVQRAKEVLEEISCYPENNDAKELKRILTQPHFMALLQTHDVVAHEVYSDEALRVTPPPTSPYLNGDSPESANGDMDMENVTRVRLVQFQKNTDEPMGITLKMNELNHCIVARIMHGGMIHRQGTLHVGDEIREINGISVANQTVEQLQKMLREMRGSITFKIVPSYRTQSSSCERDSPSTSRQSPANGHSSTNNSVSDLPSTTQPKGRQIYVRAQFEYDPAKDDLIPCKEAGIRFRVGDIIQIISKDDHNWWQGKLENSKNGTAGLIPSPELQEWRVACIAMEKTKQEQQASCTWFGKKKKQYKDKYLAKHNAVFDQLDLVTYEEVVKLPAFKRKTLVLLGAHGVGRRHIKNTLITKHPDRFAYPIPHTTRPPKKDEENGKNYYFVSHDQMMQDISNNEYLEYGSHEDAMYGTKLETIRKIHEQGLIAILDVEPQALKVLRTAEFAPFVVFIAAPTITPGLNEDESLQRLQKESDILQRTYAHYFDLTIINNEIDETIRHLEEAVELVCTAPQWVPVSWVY

panel of 468 kinases [2] = molecular target: T2, panel of 468 kinases (Homo sapiens, UniProt P0C264); conditions: SgK110; 1 μM; read-out: % control
T2 construct: purchased KINOMEscan (ScanMAX) service
T2 sequence (P0C264 1-359): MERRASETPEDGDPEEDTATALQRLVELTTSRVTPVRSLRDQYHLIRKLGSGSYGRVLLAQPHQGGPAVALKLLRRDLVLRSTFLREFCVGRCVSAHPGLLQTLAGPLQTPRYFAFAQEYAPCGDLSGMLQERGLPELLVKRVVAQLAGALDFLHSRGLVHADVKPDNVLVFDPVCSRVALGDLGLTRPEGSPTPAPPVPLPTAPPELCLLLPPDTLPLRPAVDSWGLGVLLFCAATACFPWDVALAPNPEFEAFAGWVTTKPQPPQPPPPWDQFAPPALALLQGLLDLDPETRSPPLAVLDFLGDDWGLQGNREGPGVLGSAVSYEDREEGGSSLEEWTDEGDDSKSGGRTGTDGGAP

panel of 468 kinases [3] = molecular target: T3, panel of 468 kinases (Homo sapiens, UniProt P27448); conditions: MARK3; 1 μM; read-out: % control
T3 construct: purchased KINOMEscan (ScanMAX) service

panel of 468 kinases [4] = molecular target: T4, panel of 468 kinases (Homo sapiens, UniProt P36896); conditions: ACVR1B; 1 μM; read-out: % control
T4 construct: purchased KINOMEscan (ScanMAX) service
T4 sequence (P36896 24-505): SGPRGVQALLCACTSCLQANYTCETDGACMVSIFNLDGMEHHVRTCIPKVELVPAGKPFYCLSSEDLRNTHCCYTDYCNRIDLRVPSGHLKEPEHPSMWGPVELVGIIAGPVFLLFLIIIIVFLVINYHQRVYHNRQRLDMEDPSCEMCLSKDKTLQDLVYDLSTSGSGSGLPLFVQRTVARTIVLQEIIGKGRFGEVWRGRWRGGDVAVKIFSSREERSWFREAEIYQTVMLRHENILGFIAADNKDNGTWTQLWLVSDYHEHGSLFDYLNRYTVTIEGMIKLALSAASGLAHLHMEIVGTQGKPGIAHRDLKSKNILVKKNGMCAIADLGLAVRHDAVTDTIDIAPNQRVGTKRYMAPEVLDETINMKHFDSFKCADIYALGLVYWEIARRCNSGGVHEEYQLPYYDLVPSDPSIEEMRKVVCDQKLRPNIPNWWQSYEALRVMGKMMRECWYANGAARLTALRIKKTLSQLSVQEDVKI

panel of 468 kinases [5] = molecular target: T5, panel of 468 kinases (Homo sapiens, UniProt P54756); conditions: EPHA5; 1 μM; read-out: % control
T5 construct: purchased KINOMEscan (ScanMAX) service

panel of 468 kinases [6] = molecular target: T6, panel of 468 kinases (Homo sapiens, UniProt Q16288); conditions: TRKC; 1 μM; read-out: % control
T6 construct: purchased KINOMEscan (ScanMAX) service

panel of 468 kinases [7] = molecular target: T7, panel of 468 kinases (Homo sapiens, UniProt Q99755); conditions: PIP5K1A; 1 μM; read-out: % control
T7 construct: purchased KINOMEscan (ScanMAX) service

panel of 468 kinases [8] = molecular target: T8, panel of 468 kinases (Homo sapiens, UniProt Q9H4A3); conditions: WNK1; 1 μM; read-out: % control
T8 construct: purchased KINOMEscan (ScanMAX) service

T6 sequence (Q16288 32-839): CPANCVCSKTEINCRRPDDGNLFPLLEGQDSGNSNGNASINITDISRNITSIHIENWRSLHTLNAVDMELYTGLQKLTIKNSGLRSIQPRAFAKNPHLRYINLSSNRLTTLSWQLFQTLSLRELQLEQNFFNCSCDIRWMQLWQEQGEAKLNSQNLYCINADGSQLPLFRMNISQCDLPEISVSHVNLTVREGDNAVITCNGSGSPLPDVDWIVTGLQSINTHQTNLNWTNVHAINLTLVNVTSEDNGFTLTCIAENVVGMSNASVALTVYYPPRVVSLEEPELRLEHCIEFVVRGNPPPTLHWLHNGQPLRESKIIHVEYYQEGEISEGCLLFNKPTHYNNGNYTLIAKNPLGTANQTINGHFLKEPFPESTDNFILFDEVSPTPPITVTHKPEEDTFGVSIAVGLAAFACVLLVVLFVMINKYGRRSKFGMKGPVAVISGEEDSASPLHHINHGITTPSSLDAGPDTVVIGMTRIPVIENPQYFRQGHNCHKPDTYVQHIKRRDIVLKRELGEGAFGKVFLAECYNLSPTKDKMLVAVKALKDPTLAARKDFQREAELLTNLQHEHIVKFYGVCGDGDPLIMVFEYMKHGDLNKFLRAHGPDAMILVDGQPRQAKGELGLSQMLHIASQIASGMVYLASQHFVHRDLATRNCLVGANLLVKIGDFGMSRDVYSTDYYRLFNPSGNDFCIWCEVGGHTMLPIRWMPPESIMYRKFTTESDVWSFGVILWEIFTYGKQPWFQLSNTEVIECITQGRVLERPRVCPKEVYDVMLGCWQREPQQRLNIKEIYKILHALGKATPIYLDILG
T7 sequence (Q99755 whole entry): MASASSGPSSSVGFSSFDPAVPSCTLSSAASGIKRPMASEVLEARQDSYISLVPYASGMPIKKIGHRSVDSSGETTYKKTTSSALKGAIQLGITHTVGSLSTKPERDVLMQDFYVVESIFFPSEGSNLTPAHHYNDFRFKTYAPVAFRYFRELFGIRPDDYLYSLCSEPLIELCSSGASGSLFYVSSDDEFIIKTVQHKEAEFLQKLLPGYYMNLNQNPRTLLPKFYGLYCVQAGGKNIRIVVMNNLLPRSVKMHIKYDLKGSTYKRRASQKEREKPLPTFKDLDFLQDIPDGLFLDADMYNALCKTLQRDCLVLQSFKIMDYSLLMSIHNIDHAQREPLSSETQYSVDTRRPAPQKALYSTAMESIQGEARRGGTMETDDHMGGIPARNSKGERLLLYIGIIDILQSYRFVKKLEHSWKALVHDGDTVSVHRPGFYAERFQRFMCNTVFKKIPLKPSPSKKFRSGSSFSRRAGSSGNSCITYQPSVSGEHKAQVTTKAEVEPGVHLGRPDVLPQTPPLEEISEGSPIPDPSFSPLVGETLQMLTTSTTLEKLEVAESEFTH
T3 sequence (P27448 whole entry): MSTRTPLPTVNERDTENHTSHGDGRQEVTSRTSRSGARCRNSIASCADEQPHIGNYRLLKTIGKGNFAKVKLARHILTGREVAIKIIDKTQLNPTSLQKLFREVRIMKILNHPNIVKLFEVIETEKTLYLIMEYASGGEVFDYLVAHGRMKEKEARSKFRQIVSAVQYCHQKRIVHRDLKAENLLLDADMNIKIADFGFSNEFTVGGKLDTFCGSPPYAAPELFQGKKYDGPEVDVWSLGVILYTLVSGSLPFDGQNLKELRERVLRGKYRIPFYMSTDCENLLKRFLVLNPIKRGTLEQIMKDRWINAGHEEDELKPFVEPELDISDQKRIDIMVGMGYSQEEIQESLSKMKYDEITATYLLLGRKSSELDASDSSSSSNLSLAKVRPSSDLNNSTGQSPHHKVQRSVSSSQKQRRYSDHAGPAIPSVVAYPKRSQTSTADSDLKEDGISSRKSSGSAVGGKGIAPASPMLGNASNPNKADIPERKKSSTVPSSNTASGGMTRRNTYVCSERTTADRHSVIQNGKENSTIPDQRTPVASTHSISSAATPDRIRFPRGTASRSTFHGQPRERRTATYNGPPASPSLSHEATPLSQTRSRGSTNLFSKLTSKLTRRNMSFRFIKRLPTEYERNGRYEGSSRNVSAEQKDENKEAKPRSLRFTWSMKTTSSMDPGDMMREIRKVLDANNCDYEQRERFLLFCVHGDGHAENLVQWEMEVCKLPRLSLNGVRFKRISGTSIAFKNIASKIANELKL
T5 sequence (P54756 25-1037): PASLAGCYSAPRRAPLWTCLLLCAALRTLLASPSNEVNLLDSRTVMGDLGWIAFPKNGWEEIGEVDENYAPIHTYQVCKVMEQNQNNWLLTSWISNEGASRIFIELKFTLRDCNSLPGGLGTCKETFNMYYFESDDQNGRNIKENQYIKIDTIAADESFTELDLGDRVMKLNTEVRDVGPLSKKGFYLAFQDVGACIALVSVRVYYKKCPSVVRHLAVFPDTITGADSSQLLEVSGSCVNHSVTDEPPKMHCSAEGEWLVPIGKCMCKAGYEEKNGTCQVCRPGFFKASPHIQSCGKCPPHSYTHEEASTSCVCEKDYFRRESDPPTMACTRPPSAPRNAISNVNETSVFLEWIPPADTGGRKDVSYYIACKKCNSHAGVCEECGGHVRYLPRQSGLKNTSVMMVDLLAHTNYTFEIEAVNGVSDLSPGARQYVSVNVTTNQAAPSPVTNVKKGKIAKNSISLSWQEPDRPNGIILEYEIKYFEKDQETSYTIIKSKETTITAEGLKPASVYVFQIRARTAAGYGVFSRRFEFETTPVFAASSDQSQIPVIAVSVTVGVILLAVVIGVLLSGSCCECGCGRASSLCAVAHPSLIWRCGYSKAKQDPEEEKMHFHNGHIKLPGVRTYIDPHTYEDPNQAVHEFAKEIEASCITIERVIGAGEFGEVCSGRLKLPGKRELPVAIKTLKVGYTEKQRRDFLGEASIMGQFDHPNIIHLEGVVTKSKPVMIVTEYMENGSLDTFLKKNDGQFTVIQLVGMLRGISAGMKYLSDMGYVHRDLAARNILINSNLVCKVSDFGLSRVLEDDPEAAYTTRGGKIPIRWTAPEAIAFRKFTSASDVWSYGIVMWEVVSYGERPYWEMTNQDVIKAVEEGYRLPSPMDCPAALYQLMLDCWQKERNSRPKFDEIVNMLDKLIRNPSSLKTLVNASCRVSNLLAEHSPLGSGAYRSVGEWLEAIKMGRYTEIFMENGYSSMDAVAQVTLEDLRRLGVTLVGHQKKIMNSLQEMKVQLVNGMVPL

## CNc1nc(Nc2ccc(S(=O)(=O)N3CCC(N4CCOCC4)CC3)cc2OC)nc2[nH]cc(Cl)c12 [Compound 12, 5-chloro-N2-(2-methoxy-4-((4-morpholinopiperidin-1-yl)sulfonyl)phenyl)-N4-methyl-7H-pyrrolo[2,3-d]pyrimidine-2,4-diamine]
Panel of 468 kinases [1]
  remaining binding at 1 µM: 90%
Panel of 468 kinases [2]
  remaining binding at 1 µM: 92%
Panel of 468 kinases [3]
  remaining binding at 1 µM: 100%
Panel of 468 kinases [4]
  remaining binding at 1 µM: 100%
Panel of 468 kinases [5]
  remaining binding at 1 µM: 100%
Panel of 468 kinases [6]
  remaining binding at 1 µM: 100%
Panel of 468 kinases [7]
  remaining binding at 1 µM: 100%
Panel of 468 kinases [8]
  remaining binding at 1 µM: 100%

## CNc1nc(Nc2ccc(C(=O)N3CCC(N4CCOCC4)CC3)c3c2OCO3)nc2[nH]cc(Cl)c12 [Compound 75, (7-((5-chloro-4-(methylamino)-7H-pyrrolo[2,3-d]pyrimidin-2-yl)amino)benzo[d][1,3]dioxol-4-yl)(4-morpholinopiperidin-1-yl)methanone]
Panel of 468 kinases [1]
  remaining binding at 1 µM: 99%
Panel of 468 kinases [2]
  remaining binding at 1 µM: 100%
Panel of 468 kinases [3]
  remaining binding at 1 µM: 100%
Panel of 468 kinases [4]
  remaining binding at 1 µM: 100%
Panel of 468 kinases [5]
  remaining binding at 1 µM: 100%
Panel of 468 kinases [6]
  remaining binding at 1 µM: 100%
Panel of 468 kinases [7]
  remaining binding at 1 µM: 34%
Panel of 468 kinases [8]
  remaining binding at 1 µM: 100%

## CNc1nc(Nc2ccc(P3(=O)CCN(C4CCOCC4)CC3)cc2OC)nc2[nH]cc(Cl)c12 [Compound 77, 4-(4-((5-chloro-4-(methylamino)-7H-pyrrolo[2,3-d]pyrimidin-2-yl)amino)-3-methoxyphenyl)-1-(tetrahydro-2H-pyran-4-yl)-1,4-azaphosphinane 4-oxide]
Panel of 468 kinases [1]
  remaining binding at 1 µM: 95%
Panel of 468 kinases [2]
  remaining binding at 1 µM: 98%
Panel of 468 kinases [3]
  remaining binding at 1 µM: 100%
Panel of 468 kinases [4]
  remaining binding at 1 µM: 100%
Panel of 468 kinases [5]
  remaining binding at 1 µM: 100%
Panel of 468 kinases [6]
  remaining binding at 1 µM: 100%
Panel of 468 kinases [7]
  remaining binding at 1 µM: 100%
Panel of 468 kinases [8]
  remaining binding at 1 µM: 91%
